Measurements: patent US20240425966A1, “GAS-ASSISTED COCRYSTAL DE-SUBLIMATION” (THE REGENTS OF THE UNIVERSITY OF MICHIGAN, priority 2021, published 2024)

Legend:
[1] = Differential scanning calorimetry (DSC), enthalpy of melting; assay type: physicochemical; settings: 40-400° C., 10° C. per minute, initial heating curve
Description: (§1) To determine optimal process temperature, differential scanning calorimetry (DSC) and thermogravimetric analysis (TGA) were performed on the pure components, as well as on the cocrystal, shown in FIG. 2. A TA instruments DSC Q200 was used with a 40-400° C. heating range and 10° C. per minute heating rate. Only initial heating curves were collected and analyzed, without a cooling and secondary heating step. The initial melting peak temperature and enthalpy of melting values for each sample was determined using Universal Analysis software from TA instruments. A TA Instruments TGA Q500 was used with a 25-400° C. heating range and a 10° C. per minute heating rate. Powder was placed into a 5 mm diameter aluminum sample pan centered in a platinum hang pan. Enthalpies of sublimation were determined by plotting the logarithm of mass loss rate (−dm/dt) versus inverse temperature (1000/T).

[2] = Thermogravimetric analysis (TGA), enthalpy of sublimation from Arrhenius plot of mass loss rate; assay type: physicochemical; settings: for Sublimation ΔHsub: 25-400° C., 10° C. per minute, slope of log mass loss rate versus 1000/T; for Sublimation Tlow: lower temperature of sublimation range; for Sublimation Thigh: upper temperature of sublimation range
Description: as §1

[3] = Thermal stability (decomposition temperature); assay type: physicochemical; settings: heating
Excerpt: Thermal analysis provides a good basis to determine the process window for successful cocrystal de-sublimation. The target temperature for the process is preferably in a region where sublimed API and conformer readily remain in the vapor phase. Too low, and the less volatile compound may de-sublimate within the heated tube, altering the ratio of API to conformer reaching a cooled surface (26). Moreover, decreasing temperature reduces sublimation rate and thus restricts the amount of material that can be processed. The upper temperature limit of the process is largely dictated by the thermal stability of each component. For example, CBZ may begin to decompose appreciably before reaching 180° C., limiting the heating temperature to well below its melting temperature. […] On the other hand, IND is stable up to 248° C., well above its melting temperature (27).

[4] = heating; reference (27); cited from earlier work

Structure (SMILES)	Melting ΔHmelt [1]	Sublimation ΔHsub [2]	Sublimation Tlow [2]	Sublimation Thigh [2]	temperature before which decomposition may begin appreciably [3]	stable up to (temperature) [4]
NC(=O)N1c2ccccc2C=Cc2ccccc21 [CBZ, carbamazepine]	6.33 kcal/mol	48.59 kcal/mol	220 °C	280 °C	< 180 °C	
COc1ccc2c(c1)c(CC(=O)O)c(C)n2C(=O)c1ccc(Cl)cc1 [IND, indomethacin]	8.01 kcal/mol	27.29 kcal/mol	200 °C	320 °C		248 °C
O=C1NS(=O)(=O)c2ccccc21 [SAC, saccharine]	8.68 kcal/mol	25.57 kcal/mol	200 °C	290 °C		
O=C(O)CCC(=O)O [SUC, succinic acid]	7.89 kcal/mol	23.1 kcal/mol	140 °C	230 °C		
